# Literature values in patent US6887863B2, “Hydrazide and alkoxyamide angiogenesis inhibitors” (Abbott Laboratories, priority 2000, dated 2005).
# Target: type 2-methionine aminopeptidase (MetAP2) (Homo sapiens, UniProt P50579)
# Settings: reported in Proc. Natl. Acad. Sci. USA 94: 6099-6103 (1997) and Chemistry and Biology 4(6): 461-471 (1997)
# Chain of type 2-methionine aminopeptidase (MetAP2) (P50579 whole entry, species assumed): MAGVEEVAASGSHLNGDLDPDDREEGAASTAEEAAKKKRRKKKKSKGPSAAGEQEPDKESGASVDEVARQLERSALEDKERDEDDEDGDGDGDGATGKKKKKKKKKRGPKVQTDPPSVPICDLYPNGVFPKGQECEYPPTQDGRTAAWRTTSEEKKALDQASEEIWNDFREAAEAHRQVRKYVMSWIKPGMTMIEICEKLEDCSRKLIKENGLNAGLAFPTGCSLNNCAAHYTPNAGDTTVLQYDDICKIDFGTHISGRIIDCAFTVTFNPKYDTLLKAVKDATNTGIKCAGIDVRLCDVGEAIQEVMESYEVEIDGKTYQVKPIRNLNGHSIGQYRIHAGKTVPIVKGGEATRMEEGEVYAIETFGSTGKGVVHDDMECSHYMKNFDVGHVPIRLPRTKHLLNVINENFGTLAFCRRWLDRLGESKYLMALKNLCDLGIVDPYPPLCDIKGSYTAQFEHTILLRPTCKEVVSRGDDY
smiles,measurement,value
CO[C@@H]1[C@H](OC(=O)NC(=O)CCl)CC[C@]2(CO2)[C@H]1[C@@]1(C)O[C@@H]1CC=C(C)C [AGM-1470],inactivation of MetAP2,covalently inactivate
